Measured values from patent US8193372B2, “Phosphothiophene and phosphothiazole HCV polymerase inhibitors” (Idenix Pharmaceuticals, Inc., priority 2009, dated 2012).
pEC50, pIC50: −log10 of the molar value.

What was measured:
[1] = tested on: HCV Con1 subgenomic replicon of genotype 1b (GS4.1 cells); assay: microbe, parasite or virus in culture; format: cell-based, HCV genotype 1b; conditions: Hepatitis C virus; for pEC50: 72 h
[2] = Cytotoxicity (CC50) reported with the HCV replicon ELISA assay; conditions: human
[3] = in vitro; conditions: human

CCCCOP(=O)(Nc1cc(-c2ccc(Cl)cc2)sc1C(=O)O)c1ccc(C)cc1C (stereo not drawn) [Compound 137]
pIC50 [1]: 5.08 to 7.00 | pEC50 [1]: 5.08 to 7.00 | CC50 at 72 hr [2]: > 8.3 µM

COCCOP(=O)(Nc1cc(-c2ccc(Cl)cc2)sc1C(=O)O)c1ccc(C)cc1C (stereo not drawn) [Compound 85]
pIC50 [1]: 5.08 to 7.00 | pEC50 [1]: 5.08 to 7.00 | CC50 at 72 hr [2]: > 8.3 µM

CCOCCOP(=O)(Nc1cc(-c2ccc(Cl)cc2)sc1C(=O)O)c1ccc(C)cc1C (stereo not drawn) [Compound 130]
pIC50 [1]: 5.08 to 7.00 | CC50 at 72 hr [2]: > 8.3 µM

Cc1ccc(P(=O)(Nc2cc(-c3ccc(Cl)cc3)sc2C(=O)O)OCC2CC2)c(C)c1 (stereo not drawn) [Compound 91]
pIC50 [1]: 5.08 to 7.00 | pEC50 [1]: 5.08 to 7.00 | CC50 at 72 hr [2]: > 8.3 µM

Cc1ccc(P(=O)(Nc2cc(-c3ccc(Cl)cc3)sc2C(=O)O)OCC(C)C)c(C)c1 (stereo not drawn) [Compound 86]
pIC50 [1]: 5.08 to 7.00 | pEC50 [1]: 5.08 to 7.00 | CC50 at 72 hr [2]: > 8.3 µM

Cc1ccc(P(=O)(O)Nc2cc(-c3ccc(F)cc3)sc2C(=O)O)c(C)c1 [Compound 1]
pIC50 [1]: 5.08 to 7.00 | pEC50 [1]: < 5.08 | CC50 at 72 hr [2]: > 8.3 µM

Cc1ccc(P(=O)(Nc2cc(-c3ccc(Cl)cc3)sc2C(=O)O)OCCC(C)C)c(C)c1 (stereo not drawn) [Compound 81]
pIC50 [1]: 5.08 to 7.00 | pEC50 [1]: 5.08 to 7.00 | CC50 at 72 hr [2]: > 8.3 µM

Cc1ccc(P(=O)(Nc2cc(-c3ccc(Cl)cc3)sc2C(=O)O)OCc2ccccc2)c(C)c1 (stereo not drawn) [Compound 107]
pEC50 [1]: 5.08 to 7.00 | CC50 at 72 hr [2]: > 8.3 µM

Cc1ccc(P(=O)(Nc2cc(-c3ccc(Cl)cc3)sc2C(=O)O)OC2CCOC2)c(C)c1 (stereo not drawn) [Compound 94]
pIC50 [1]: 5.08 to 7.00 | pEC50 [1]: 5.08 to 7.00 | CC50 at 72 hr [2]: > 8.3 µM

COP(=O)(Nc1cc(-c2ccccc2)sc1C(=O)O)c1ccc(C)cc1C (stereo not drawn) [Compound 27, 2-Thiophenecarboxylic acid, 3-N-[(2,4-dimethyl-phenyl)-phosphonamidatemethyl ester]-5-phenyl]
pIC50 [1]: > 7.00 | pEC50 [1]: 5.08 to 7.00 | CC50 [3]: > 8.3 µM

COP(=O)(Nc1cc(-c2ccc(CC(C)C)cc2)sc1C(=O)O)c1ccc(C)cc1C (stereo not drawn) [Compound 154]
pIC50 [1]: 5.08 to 7.00 | pEC50 [1]: < 5.08 | CC50 [3]: > 8.3 µM

COP(=O)(Nc1cc(-c2cc3ccccc3s2)sc1C(=O)O)c1ccc(C)cc1C (stereo not drawn) [Compound 97]
pIC50 [1]: > 7.00 | pEC50 [1]: 5.08 to 7.00 | CC50 [3]: > 8.3 µM

CCOP(=O)(Nc1cc(-c2ccc(F)cc2)sc1C(=O)OC)c1ccc(Cl)cc1Cl (stereo not drawn) [Compound 170]
pEC50 [1]: < 5.08 | CC50 [3]: > 8.3 µM

COP(=O)(Nc1cc(-c2cc3ccccc3o2)sc1C(=O)O)c1ccc(C)cc1C (stereo not drawn) [Compound 96]
pIC50 [1]: > 7.00 | pEC50 [1]: 5.08 to 7.00 | CC50 [3]: > 8.3 µM

CCOP(=O)(Nc1cc(-c2ccc(Cl)cc2)sc1C(=O)O)c1ccc(Cl)cc1Cl (stereo not drawn) [Compound 163]
pIC50 [1]: 5.08 to 7.00 | pEC50 [1]: 5.08 to 7.00 | CC50 [3]: > 8.3 µM

CCOP(=O)(Cc1cc(-c2ccccc2)sc1C(=O)O)c1ccc(C)cc1C (stereo not drawn) [Compound 178]
pIC50 [1]: 5.08 to 7.00 | pEC50 [1]: < 5.08 | CC50 [3]: > 8.3 µM

CCOP(=O)(Nc1cc(-c2ccc(-c3cc4ncccc4o3)cc2)sc1C(=O)O)c1ccc(Cl)cc1Cl (stereo not drawn) [Compound 150]
pIC50 [1]: > 7.00 | pEC50 [1]: > 7.00 | CC50 [3]: > 8.3 µM

COP(=O)(Nc1cc(-c2ccc(C#Cc3ccccn3)cc2)sc1C(=O)O)c1ccc(C)cc1C (stereo not drawn) [Compound 143]
pIC50 [1]: > 7.00 | pEC50 [1]: > 7.00 | CC50 [3]: > 8.3 µM

C#CCOP(=O)(Nc1cc(-c2ccc(Cl)cc2)sc1C(=O)O)c1ccc(C)cc1C (stereo not drawn) [Compound 106]
pIC50 [1]: 5.08 to 7.00 | pEC50 [1]: 5.08 to 7.00 | CC50 [3]: > 8.3 µM

COC(=O)c1sc(-c2ccc(Br)cc2)cc1NP(=O)(OC)c1ccc(C)cc1C (stereo not drawn) [Compound 148]
pIC50 [1]: < 5.08 | pEC50 [1]: < 5.08 | CC50 [3]: > 8.3 µM

CCOP(=O)(Nc1cc(-c2ccc(Cl)c(Cl)c2)sc1C(=O)O)c1ccc(Cl)cc1Cl (stereo not drawn) [Compound 161]
pIC50 [1]: 5.08 to 7.00 | pEC50 [1]: < 5.08 | CC50 [3]: > 8.3 µM

COP(=O)(Nc1cc(-c2ccc(C#CC3CCCC3)cc2)sc1C(=O)O)c1ccc(C)cc1C (stereo not drawn) [Compound 102]
pIC50 [1]: 5.08 to 7.00 | pEC50 [1]: < 5.08 | CC50 [3]: > 8.3 µM

CCOC(=O)OC(C)N(c1cc(-c2ccc(Cl)cc2)sc1C(=O)OC(C)OC(=O)OC)P(=O)(OC)c1ccc(C)cc1C (stereo not drawn) [Compound 108]
pIC50 [1]: < 5.08 | pEC50 [1]: 5.08 to 7.00 | CC50 [3]: > 8.3 µM

COP(=O)(Nc1cc(-c2ccc(Cl)cc2F)sc1C(=O)O)c1ccc(C)cc1C (stereo not drawn) [Compound 79]
pIC50 [1]: > 7.00 | pEC50 [1]: 5.08 to 7.00 | CC50 [3]: > 8.3 µM

CCCOP(=O)(Nc1cc(-c2ccc(Cl)cc2)sc1C(=O)O)c1ccc(C)cc1C (stereo not drawn) [Compound 87]
pIC50 [1]: 5.08 to 7.00 | pEC50 [1]: 5.08 to 7.00 | CC50 [3]: > 8.3 µM

COP(=O)(c1ccc(C)cc1C)N(C)c1cc(-c2ccc(Cl)cc2)sc1C(=O)O (stereo not drawn) [Compound 113]
pIC50 [1]: > 7.00 | pEC50 [1]: 5.08 to 7.00 | CC50 [3]: > 8.3 µM

COP(=O)(Nc1cc(-c2ccc(-c3cccc4ncccc34)cc2)sc1C(=O)O)c1ccc(C)cc1C (stereo not drawn) [Compound 121]
pIC50 [1]: > 7.00 | pEC50 [1]: 5.08 to 7.00 | CC50 [3]: > 8.3 µM

COP(=O)(Nc1cc(-c2ccc(-c3cccc([N+](=O)[O-])c3)cc2)sc1C(=O)O)c1ccc(C)cc1C (stereo not drawn) [Compound 120]
pIC50 [1]: 5.08 to 7.00 | pEC50 [1]: < 5.08 | CC50 [3]: > 8.3 µM

COP(=O)(Cc1cc(-c2ccc(-c3cc4ncccc4o3)cc2)sc1C(=O)O)c1ccc(C)cc1C (stereo not drawn) [Compound 174]
pIC50 [1]: > 7.00 | pEC50 [1]: > 7.00 | CC50 [3]: > 8.3 µM

COP(=O)(Nc1cc(-c2ccc(-c3cc4ccccc4o3)cc2)sc1C(=O)O)c1ccc(C)cc1C (stereo not drawn) [Compound 125]
pIC50 [1]: > 7.00 | pEC50 [1]: > 7.00 | CC50 [3]: > 8.3 µM

CCOP(=O)(Nc1cc(-c2ccc(F)cc2)sc1C(=O)O)c1ccc(C)cc1C (stereo not drawn) [Compound 22, 2-Thiophenecarboxylic acid, 3-N-[(2,4-dimethyl-phenyl)-phosphonamidateethyl ester]-5-(4-fluorophenyl)]
pIC50 [1]: 5.08 to 7.00 | pEC50 [1]: 5.08 to 7.00 | CC50 [3]: > 8.3 µM

COP(=O)(Nc1cc(-c2ccc(-c3ccccc3F)cc2)sc1C(=O)O)c1ccc(C)cc1C (stereo not drawn) [Compound 124]
pIC50 [1]: 5.08 to 7.00 | pEC50 [1]: 5.08 to 7.00 | CC50 [3]: > 8.3 µM

COP(=O)(Nc1cc(-c2ccc(-c3cc4nc(C)cc(N)n4n3)cc2)sc1C(=O)O)c1ccc(C)cc1C (stereo not drawn) [Compound 100]
pIC50 [1]: > 7.00 | pEC50 [1]: > 7.00 | CC50 [3]: > 8.3 µM

COP(=O)(Nc1cc(-c2cccnc2)sc1C(=O)O)c1ccc(C)cc1C (stereo not drawn) [Compound 99]
pIC50 [1]: 5.08 to 7.00 | pEC50 [1]: < 5.08 | CC50 [3]: > 8.3 µM

COP(=O)(Nc1cc(-c2ccc(-c3ccc(OCc4ccccc4)nc3)cc2)sc1C(=O)O)c1ccc(C)cc1C (stereo not drawn) [Compound 122]
pIC50 [1]: 5.08 to 7.00 | pEC50 [1]: < 5.08 | CC50 [3]: > 8.3 µM

COP(=O)(Nc1cc(-c2ccc(N)cc2)sc1C(=O)O)c1ccc(C)cc1C (stereo not drawn) [Compound 126]
pIC50 [1]: 5.08 to 7.00 | pEC50 [1]: < 5.08 | CC50 [3]: > 8.3 µM

COP(=O)(c1ccc(C)cc1C)N(C)c1cc(-c2ccc(-c3cc4ncccc4o3)cc2)sc1C(=O)O (stereo not drawn) [Compound 145]
pIC50 [1]: > 7.00 | pEC50 [1]: > 7.00 | CC50 [3]: > 8.3 µM

COP(=O)(Nc1cc(-c2ccc(-c3cc4nc(C)ccn4n3)cc2)sc1C(=O)O)c1ccc(C)cc1C (stereo not drawn) [Compound 105]
pIC50 [1]: > 7.00 | pEC50 [1]: > 7.00 | CC50 [3]: > 8.3 µM

COc1ccc(-c2cc(NP(=O)(OC)c3ccc(C)cc3C)c(C(=O)O)s2)cc1 (stereo not drawn) [Compound 149]
pIC50 [1]: > 7.00 | pEC50 [1]: 5.08 to 7.00 | CC50 [3]: > 8.3 µM

COP(=O)(Nc1cc(-c2ccc(-c3cc4ncccc4o3)cc2)sc1C(=O)O)c1ccc(Cl)cc1F (stereo not drawn) [Compound 119]
pIC50 [1]: > 7.00 | pEC50 [1]: > 7.00 | CC50 [3]: > 8.3 µM

COP(=O)(Nc1cc(-c2ccc(Cl)cc2)sc1C(N)=O)c1ccc(C)cc1C (stereo not drawn) [Compound 111]
pIC50 [1]: < 5.08 | pEC50 [1]: < 5.08 | CC50 [3]: > 8.3 µM

COP(=O)(Nc1cc(-c2ccc(C#Cc3ccccc3)cc2)sc1C(=O)O)c1ccc(C)cc1C (stereo not drawn) [Compound 146]
pIC50 [1]: > 7.00 | pEC50 [1]: > 7.00 | CC50 [3]: > 8.3 µM

CCOP(=O)(Nc1cc(-c2ccc(Cl)cc2)sc1C(=O)O)c1ccc(Cl)cc1C (stereo not drawn) [Compound 136]
pIC50 [1]: > 7.00 | pEC50 [1]: 5.08 to 7.00 | CC50 [3]: > 8.3 µM

COP(=O)(Nc1cc(-c2ccc(Cl)cc2Cl)sc1C(=O)O)c1ccc(C)cc1C (stereo not drawn) [Compound 151]
pIC50 [1]: 5.08 to 7.00 | pEC50 [1]: < 5.08 | CC50 [3]: > 8.3 µM
